Legend:
thrombin = thrombin (Homo sapiens, UniProt P00734); test: Thrombin-inhibitory activity in plasma samples (ecarin, fluorogenic thrombin substrate); type: biochemical; details: thrombin inhibition in citrate plasma (Octapharma), ecarin-stimulated, read at about 12 min
Procedure: a.5) Determination of the Thrombin-inhibitory Activity of the Potential Inhibitors in Plasma Samples
Various concentrations of the substances to be tested are dissolved in dimethyl sulphoxide and diluted with water.

factor Xa = molecular target: T1, factor Xa (Homo sapiens, UniProt P00742); test: biochemical; details: factor Xa inhibition in citrate plasma (Octapharma), factor X activated by Russel viper venom, ChromozymX substrate, read at about 12 min
T1 construct: tissue Octapharma; host or cells: citrate plasma
T1 sequence (P00742 235-488 limits assumed): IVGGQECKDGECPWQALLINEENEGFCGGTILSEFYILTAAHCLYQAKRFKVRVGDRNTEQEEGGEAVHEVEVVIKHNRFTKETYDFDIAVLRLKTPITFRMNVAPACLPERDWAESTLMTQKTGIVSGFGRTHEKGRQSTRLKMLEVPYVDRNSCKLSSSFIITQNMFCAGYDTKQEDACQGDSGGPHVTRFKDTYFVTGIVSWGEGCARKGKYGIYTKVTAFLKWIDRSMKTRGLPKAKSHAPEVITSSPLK
T1 sequence (P00742 41-179 limits assumed): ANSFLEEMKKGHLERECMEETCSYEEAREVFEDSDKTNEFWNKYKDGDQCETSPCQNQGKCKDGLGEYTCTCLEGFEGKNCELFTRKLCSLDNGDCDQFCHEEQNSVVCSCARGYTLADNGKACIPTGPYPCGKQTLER
Procedure: a.4) Determination of the Factor Xa-inhibitory Activity of the Potential Inhibitors in Plasma Samples
To determine the inhibition of factor Xa in plasma samples, the factor X present in plasma is activated by a protease from rattlesnake toxin. The factor Xa activity or its inhibition by potential inhibitors is then measured by addition of a chromogenic substrate.
Various concentrations of the substances to be tested are dissolved in dimethyl sulphoxide and mixed with an aqueous refludan solution (10 μg/ml). In clear 96-well plates having a flat bottom, 30 μl of citrate plasma (Octapharma) are mixed with 10 μl of the substance dilution.

`Cc1cc(N2C[C@H](CNC(=O)c3ccc(Cl)s3)OC2=O)cc(C)c1-n1cccc(CCNCCO)c1=O` [Example 37, 5-Chloro-N-{[(5S)-3-{4-[3-{2-[(2-hydroxyethyl)amino]ethyl}-2-oxopyridin-1(2H)-yl]-3,5-dimethylphenyl}-2-oxo-1,3-oxazolidin-5-yl]methyl}thiophene-2-carboxamide] was tested, and the IC50 (thrombin) was 15 nM and the IC50 (factor Xa) was 29 nM.

For `COCc1cc(N2C[C@H](CNC(=O)c3ccc(Cl)s3)OC2=O)ccc1-n1cccc(CCN[C@H]2CC[C@H](O)CC2)c1=O` [Example 10, 5-Chloro-N-{[(5S)-3-{4-[3-{2-[(trans-4-hydroxycyclohexyl)amino]ethyl}-2-oxopyridin-1(2H)-yl]-3-(methoxymethyl)phenyl}-2-oxo-1,3-oxazolidin-5-yl]methyl}thiophene-2-carboxamide], the IC50 (thrombin) was 24 nM and the IC50 (factor Xa) was 15 nM.

`CCCc1cc(N2C[C@H](CNC(=O)c3ccc(Cl)s3)OC2=O)ccc1-n1cccc(OCCNCCO)c1=O` [Example 36, 5-Chloro-N-{[(5S)-3-{4-[3-{2-[(2-hydroxyethyl)amino]ethoxy}-2-oxopyridin-1(2H)-yl]-3-propyl-phenyl}-2-oxo-1,3-oxazolidin-5-yl]methyl}thiophene-2-carboxamide] gave an IC50 (thrombin) of 36 nM and an IC50 (factor Xa) of 29 nM.

`COCc1cc(N2C[C@H](CNC(=O)c3ccc(Cl)s3)OC2=O)ccc1-n1cccc(CCN2CCN(C)CC2)c1=O` [Example 13] showed an IC50 (thrombin) of 16 nM and an IC50 (factor Xa) of 17 nM.

`COCc1cc(N2C[C@H](CNC(=O)c3ccc(Cl)s3)OC2=O)ccc1-n1cccc(CCNCCO)c1=O` [Example 9, 5-Chloro-N-{[(5S)-3-{4-[3-{2-[(2-hydroxyethyl)amino]ethyl}-2-oxopyridin-1(2H)-yl]-3-(methoxy-methyl)phenyl}-2-oxo-1,3-oxazolidin-5-yl]methyl}thiophene-2-carboxamide] showed an IC50 (thrombin) of 10 nM and an IC50 (factor Xa) of 11 nM.

With `COc1cc(N2C[C@H](CNC(=O)c3ccc(Cl)s3)OC2=O)ccc1-n1cccc(CCN[C@H]2CC[C@H](O)CC2)c1=O` [Example 6, 5-Chloro-N-{[(5S)-3-{4-[3-{2-[(trans-4-hydroxycyclohexyl)amino]ethyl}-2-oxopyridin-1(2H)-yl]-3-methoxyphenyl}-2-oxo-1,3-oxazolidin-5-yl]methyl}thiophene-2-carboxamide] the IC50 (thrombin) was 143 nM and the IC50 (factor Xa) was 31 nM.

For `Cc1cc(N2C[C@H](CNC(=O)c3ccc(Cl)s3)OC2=O)ccc1-n1cccc(OCCN[C@H]2CC[C@H](O)CC2)c1=O` [Example 21, 5-Chloro-N-{[(5S)-3-{4-[3-{2-[(trans-4-hydroxycyclohexyl)amino]ethoxy}-2-oxopyridin-1(2H)-yl]-3-methylphenyl}-2-oxo-1,3-oxazolidin-5-yl]methyl}thiophene-2-carboxamide], the IC50 (thrombin) was 34 nM and the IC50 (factor Xa) was 11 nM.

In the case of `COCc1cc(N2C[C@H](CNC(=O)c3ccc(Cl)s3)OC2=O)ccc1-n1cccc(CCNCCCO)c1=O` [Example 16], the IC50 (thrombin) is reported as 10 nM and the IC50 (factor Xa) is reported as 18 nM.
